Measured values published in article PMC9228987, “Antiproliferative Activity of a New Quinazolin-4(3H)-One Derivative via Targeting Aurora Kinase A in Non-Small Cell Lung Cancer” (Pharmaceuticals, 2022).

What was measured:
H1975 cells [1] = assay: Colony formation assay; assay type: cell-based, human; settings: treated 48 h, additional ten days without compound
Protocol: Cells (500 cells/well) were seeded and cultured overnight. The compounds were treated for 48 h, the cells were washed with phosphate buffered saline (PBS), and continued incubation. Culture medium was replaced every three days for ten days. Cells were fixed with 4% paraformaldehyde solution and stained with 0.1% crystal violet.

[2] = molecular target: T1, Recombinant human aurora A protein (Homo sapiens, UniProt O14965); assay: Cell-free aurora kinase assay (ADP-Glo); assay type: biochemical; settings: myelin basic protein substrate, read-out: Aurora Kinase A Inhibition (IC50)
T1 construct: purchased Abcam ab271368
T1 sequence (O14965 1-403): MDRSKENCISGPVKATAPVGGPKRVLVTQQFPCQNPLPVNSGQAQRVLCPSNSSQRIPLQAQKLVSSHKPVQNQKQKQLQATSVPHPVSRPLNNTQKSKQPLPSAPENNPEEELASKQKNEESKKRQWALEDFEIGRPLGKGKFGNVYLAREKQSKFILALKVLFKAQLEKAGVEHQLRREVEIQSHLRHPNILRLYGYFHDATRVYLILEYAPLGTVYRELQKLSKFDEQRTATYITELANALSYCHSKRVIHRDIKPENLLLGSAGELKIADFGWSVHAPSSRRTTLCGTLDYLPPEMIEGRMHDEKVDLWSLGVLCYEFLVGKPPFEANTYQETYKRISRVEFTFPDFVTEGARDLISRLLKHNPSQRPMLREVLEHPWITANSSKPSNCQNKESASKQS
Protocol: (§1) Aurora A kinase activity was measured using an ADP-Glo™ Kinase assay kit (Promega, USA, Catalog No. # PAV9101). Recombinant human aurora A protein (Active) (ab271368) and Recombinant human aurora B protein (Active) (ab51435) were purchased from Abcam (United States, Boston, MA). […] The ADP-Glo ^TM reagents and kinase detection buffer and substrates were prepared according to the ADP-Glo™ Kinase Assay kit instructions. Luminescence was measured using a microplate reader.

[3] = molecular target: T2, Recombinant human aurora B protein (Homo sapiens, UniProt Q96GD4); assay: Cell-free aurora kinase assay (ADP-Glo); assay type: biochemical; settings: myelin basic protein substrate, read-out: Aurora Kinase B Inhibition (IC50)
T2 construct: purchased Abcam ab51435
Protocol: as §1

p-aurora kinase A (T288) = assay: Western blotting of phospho-aurora kinase A in H1975 cells; assay type: cell-based, human; settings: 24 h
Source text: (§2) The cells were collected and lysed in sample loading buffer (Bio-Rad, Hercules, CA, USA). Total protein concentrations were quantified using a BCA Protein Assay Kit (Thermo Fisher Scientific, Waltham, MA, USA). Quantified proteins were loaded onto SDS-polyacrylamide gels and separated by molecular weight via electrophoresis (PAGE). Then, proteins were transferred to polyvinylidene fluoride membranes (Millipore, Bedford, MA, USA); 5% BSA in Tris-buffered saline containing 0.1% Tween-20 (TBST) was used for blocking. The membranes were blocked for 30 min at room temperature with mild shaking, then incubated with antibodies diluted in 2.5% BSA in TBST overnight at 4 °C with mild shaking. Following secondary antibody incubation and washing with TBST, the chemiluminescence signals were detected using the WEST-Queen detection system (iNtRON Biotechnology, Seongnam, Korea) and LAS-4000 (Fuji Film Corp., Tokyo, Japan).

H1975 cells [4] = assay: Cell cycle analysis (PI staining, flow cytometry); assay type: cell-based, human; settings: for Sub-G1 cell population: 72 h (Figure 5A)
Protocol: Cells were seeded and starved in serum-free medium overnight. After starvation, the cells were treated with compounds for the indicated times. After incubation, cells were harvested, washed with PBS, and fixed with 70% ethanol in PBS overnight at −20 °C. The fixed cells were washed with PBS, resuspended in 100 µg/mL of RNase A for 30 min at room temperature, and stained with 50 µg/mL PI. Fluorescence intensity was analyzed using a FACSCalibur flow cytometer (BD Biosciences, San Jose, CA, USA) and BD CellQuest^TM Pro version 6.0 software (BD Biosciences, San Jose, CA, USA).

H1975 cells [5] = assay: Annexin V-FITC/PI double staining (flow cytometry); assay type: cell-based, human
Protocol: Cells were treated with samples for 72 h and stained with an Annexin V-FITC apoptosis detection kit (BD Biosciences, San Jose, CA, USA) according to the manufacturer’s instructions. Briefly, cells were collected after 72 h treatment, washed with PBS, resuspended in 1× binding buffer, and stained with Annexin V-FITC and PI in the dark for 15 min. After incubation, the cells were diluted with 1× binding buffer and analyzed using an FACSCalibur flow cytometer (BD Biosciences, San Jose, CA, USA) and BD CellQuest^TM Pro version 6.0 software (BD Biosciences, San Jose, CA, USA).

[6] = tested on: cdc25C, cdc2, and p21 proteins; assay: Western blotting of cell cycle regulators in H1975 cells; assay type: cell-based, human; settings: H1975, 24 h
Source text: as §2

[7] = tested on: cleaved PARP, PARP, cleaved caspase-8, and caspase-8 proteins; assay: Western blotting of apoptosis-related proteins in H1975 cells; assay type: cell-based, human; settings: H1975, 72 h, concentration-dependent
Source text: as §2

HCC827 cells = assay: SRB cell proliferation assay; settings: Homo sapiens, HCC827, 72 h, read-out: IC50 value, HCC827
Protocol: (§3) The human non-small lung cancer cell lines A549, NCI-H1975, NCI-H1299, and NCI-H1993 were purchased from the American Type Culture Collection (Manassas, VA, USA). The human non-small cell lung cancer cell lines HCC827, PC9, HCC827-gef and PC9-gef were a kind gift from Dr. Jae Cheol Lee and Dr. Jin Kyung Rho (Asan Medical Center, Seoul, Korea). […] Cells were incubated at 37 °C in a humidified atmosphere with 5% CO2.
(§4) Cell viability was measured using the SRB method as described previously [58]. Briefly, cells were seeded with different concentrations of compounds and incubated for 72 h. After 72 h incubation, cells were fixed with 10% TCA for 30 min at 4 °C and stained with 0.4% (w/v) SRB in 1% acetic acid for 2 h at room temperature.

PC9 cells = assay: SRB cell proliferation assay; settings: Homo sapiens, PC-9, 72 h, read-out: IC50 value, PC9
Protocol: as §3, §4

HCC827-gef cells = assay: SRB cell proliferation assay; settings: Homo sapiens, 72 h, read-out: IC50 value, HCC827-gef
Protocol: as §3, §4

PC9-gef cells = assay: SRB cell proliferation assay; settings: Homo sapiens, 72 h, read-out: IC50 value, PC9-gef
Protocol: as §3, §4

H1975 cells [8] = assay: SRB cell proliferation assay; settings: Homo sapiens, NCI-H1975, 72 h, read-out: IC50 value, H1975
Protocol: as §3, §4

H1299 cells = assay: SRB cell proliferation assay; settings: Homo sapiens, NCI-H1299, 72 h, read-out: IC50 value, H1299
Protocol: as §3, §4

H1993 cells = assay: SRB cell proliferation assay; settings: Homo sapiens, NCI-H1993, 72 h, read-out: IC50 value, H1993
Protocol: as §3, §4

A549 cells = assay: SRB cell proliferation assay; settings: Homo sapiens, A549, 72 h, read-out: IC50 value, A549
Protocol: as §3, §4

T2 sequence (Q96GD4 whole entry): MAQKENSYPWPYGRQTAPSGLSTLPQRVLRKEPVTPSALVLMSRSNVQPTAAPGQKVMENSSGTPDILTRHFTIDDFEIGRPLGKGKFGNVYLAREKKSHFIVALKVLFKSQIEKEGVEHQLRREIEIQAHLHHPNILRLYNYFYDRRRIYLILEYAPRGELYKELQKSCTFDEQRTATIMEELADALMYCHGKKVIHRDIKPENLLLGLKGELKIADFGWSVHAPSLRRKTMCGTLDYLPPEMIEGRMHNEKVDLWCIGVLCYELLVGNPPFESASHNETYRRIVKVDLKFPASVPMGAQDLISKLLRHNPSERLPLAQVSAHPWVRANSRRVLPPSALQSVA

| IC50 (HCC827 cells) [µM] | IC50 (PC9 cells) [µM] | IC50 (HCC827-gef cells) [µM] | IC50 (PC9-gef cells) [µM] | IC50 (H1975 cells [8]) [µM] | IC50 (H1299 cells) [µM] | IC50 (H1993 cells) [µM] | IC50 (A549 cells) [µM] | SMILES | other results |
| --- | --- | --- | --- | --- | --- | --- | --- | --- | --- |
| 4.84 ± 0.17 | 16.4 ± 1.44 | 4.43 ± 0.35 | 9.21 ± 0.51 | 4.76 ± 0.17 | 5.3 ± 0.06 | 5.5 ± 1.69 | 3.63 ± 0.28 | CCOC(=O)c1cn2cc(-c3ccc4ncn(Cc5ncccn5)c(=O)c4c3)ccc2n1 [BIQO-19, ethyl 6-(4-oxo-3-(pyrimidin-2-ylmethyl)-3,4-dihydroquinazolin-6-yl)imidazo [1,2-a]pyridine-2-carboxylate] | colony formation in H1975 cells (H1975 cells [1]): significant inhibition of colony formation; IC50 [2]: 0.0685 ± 0.00645 µM; IC50 [3]: 0.581 ± 0.0138 µM; levels of p-aurora kinase A (T288) expression (p-aurora kinase A (T288)): suppressed by BIQO-19 treatment in a concentration-dependent manner; Sub-G1 cell population (H1975 cells [4]; H1975, 1 μM): 2.54%; Sub-G1 cell population (H1975 cells [4]; H1975, 2 μM): 2.60%; G2/M cell population (H1975 cells [4]; H1975, 4 μM, 12 h (Figure 4A)): 35.3%; G2/M cell population (H1975 cells [4]; H1975, 4 μM, 24 h (Figure 4A)): 52.0%; Sub-G1 cell population (H1975 cells [4]; H1975, 4 μM): 15.5%; total cell deaths (early apoptosis + late apoptosis + necrosis) (H1975 cells [5]; H1975, 4 μM, 72 h (Figure 5B,C)): 26.67%; early apoptosis fraction (H1975 cells [5]; H1975, 72 h, single vs combination treatment (Figure 6C)): 17.6%; total cell death (H1975 cells [5]; H1975, 72 h, single vs combination treatment (Figure 6D)): 27.1%; cdc25C and cdc2 expression [6]: effectively downregulated; p21 expression [6]: upregulated; expression levels of PARP and caspase-8 (inactivated forms) [7]: downregulated; expression levels of cleaved PARP and cleaved caspase-8 (activated forms) [7]: upregulated |
| 4.14 ± 0.64 | 15 ± 1.41 | 6.4 ± 0.6 | 6.75 ± 0.71 | 2.81 ± 0.43 | 5.54 ± 0.85 | 4.57 ± 0.29 | 6.11 ± 1.14 | CCC(=O)Nc1nc2ccc(-c3ccc4ncn(CCc5cc6ccccc6[nH]5)c(=O)c4c3)cc2[nH]1 [FL-4, reference compound] |  |
